Results taken from US8680132B2, “Spiro-oxindole MDM2 antagonists” (priority 2010, dated 2014).
Values joined by “and” are separate entries in the source; they are usually repeats but may differ in a detail not shown here. Identical values can stand only once.

Legend:
JAR = assay: Anti-proliferative ATP assay; assay type: cell-based; details: placenta, p53 WT/WT, MDM2 amplified
LNCAP (p53 wild-type) = assay: Cell growth assay (WST-8); assay type: cell-based, human; details: Homo sapiens, LNCaP, 96 h, read-out: IC50 LNCAP (p53 wild-type), Four day treatment
Capan2 = assay: Anti-proliferative ATP assay; assay type: cell-based; details: Homo sapiens, Capan-2, pancreas, p53 —/—
LY3 = assay: Anti-proliferative ATP assay; assay type: cell-based; details: ABC-DLBCL, p53 WT/WT
Ku812 = assay: Anti-proliferative ATP assay; assay type: cell-based; details: Homo sapiens, CML-BC, p53 WT/WT
SJSA1 = assay: Anti-proliferative ATP assay; assay type: cell-based; details: Homo sapiens, SJSA-1, bone, p53 WT/WT, MDM2 amplified
RS4; 11 = assay: Anti-proliferative ATP assay; assay type: cell-based; details: Homo sapiens, ALL, p53 WT/WT
MKN45 = assay: Anti-proliferative ATP assay; assay type: cell-based; details: Homo sapiens, MKN-45, gastric, p53 WT/WT, Met amplified
MCF7 = assay: Anti-proliferative ATP assay; assay type: cell-based; details: Homo sapiens, breast, p53 WT/WT
RKO = assay: Anti-proliferative ATP assay; assay type: cell-based; details: Homo sapiens, colon, p53 WT/WT
[1] = system: SJSA-1 (osteosarcoma) tumors; assay: In vivo efficacy, SJSA-1 xenograft model; set-up: species or system mice; details: single 200 mg/kg dose (QD1 treatment) versus QD7 treatment; FIG. 22
Method: A cell sample was mixed 1:1 with Trypan Blue (GIBCO™, Invitrogen Corp.) and counted on a hemocytometer to determine the number of live/dead cells. Cells were washed once with 1×PBS (GIBCO™, Invitrogen Corp.) and resuspended in PBS. […] Cells were injected s.c. into the flank region of each mouse using a 27 gauge needle. The size of tumors growing in the mice was measured in two dimensions using calipers. Tumor volume (mm^3)=(A×B^2)/2 where A and B are the tumor length and width (in mm), respectively. During treatment, tumor volume and body weight was measured three times a week. After the treatment was stopped, tumor volume (FIGS. 17, 20, 22, and 23) and body weight (FIGS. 18 and 21) was measured at least once a week. Mice were kept for an additional 60 days for further observation of tumor growth and toxicity. […] Before treatment began, tumors were allowed to grow to 60-140 mm^3 in volume, at which point the blood vessel supplies to the tumor should have been established. […] The Control group received vehicle alone (10% PEG 400:3% Cremophor:87% PBS).

EHEB = assay: Anti-proliferative ATP assay; assay type: cell-based; details: CLL, p53 WT/WT
PC-3 (deleted p53) = assay: Cell growth assay (WST-8); assay type: cell-based; details: 96 h, read-out: IC50 PC-3 (deleted p53), Four day treatment
RS4; 11 (p53 wt) = details: read-out: RS4, Four day treatment
LnCap = assay: Anti-proliferative ATP assay; assay type: cell-based; details: Homo sapiens, prostate, p53 WT/WT
H929 = assay: Anti-proliferative ATP assay; assay type: cell-based; details: Homo sapiens, NCI-H929, MM, p53 WT/WT
Ly7 = assay: Anti-proliferative ATP assay; assay type: cell-based; details: GCB-DLBCL, p53 WT/MUT
MV4; 11 = assay: Anti-proliferative ATP assay; assay type: cell-based; details: Homo sapiens, AML, p53 WT/WT, FLT3-ITD
Y79 = assay: Anti-proliferative ATP assay; assay type: cell-based; details: Homo sapiens, retinoblastome, p53 WT/WT, Rb mutated
Rec1 = assay: Anti-proliferative ATP assay; assay type: cell-based; details: Homo sapiens, MCL, p53 WT/WT
Ly10 = assay: Anti-proliferative ATP assay; assay type: cell-based; details: ABC-DLBCL, p53 WT/WT
Hs746T = assay: Anti-proliferative ATP assay; assay type: cell-based; details: Homo sapiens, gastric, Met amplified
SNU-1 = assay: Anti-proliferative ATP assay; assay type: cell-based; details: Homo sapiens, SNU1, gastric, p53 WT/WT, KRAS mut
MOLM13 = assay: Anti-proliferative ATP assay; assay type: cell-based; details: Homo sapiens, MOLM-13, AML, p53 WT/WT, FLT3-ITD
Method: The anti-proliferative IC50 was determined by ATP assay.

H1299 = assay: Anti-proliferative ATP assay; assay type: cell-based; details: Homo sapiens, NCI-H1299, lung, p53 —/—
CCF-STTG1 = assay: Anti-proliferative ATP assay; assay type: cell-based; details: Homo sapiens, CNS, p53 WT/WT, MDM2 amplified
SNU-5 = assay: Anti-proliferative ATP assay; assay type: cell-based; details: Homo sapiens, gastric, Met amplified
HCT116 = assay: Anti-proliferative ATP assay; assay type: cell-based; details: Homo sapiens, HCT-116, colon, p53 WT/WT
DoHH2 = assay: Anti-proliferative ATP assay; assay type: cell-based; details: Homo sapiens, DOHH-2, GCB-DLBCL, p53 WT/WT, BCL2 overexpression
SR = assay: Anti-proliferative ATP assay; assay type: cell-based; details: Homo sapiens, lymphoma, p53 WT/WT
[2] = system: prostate cancer cell line 22Rv1; assay: Growth inhibition assay (Celltiter-Glo), 22Rv1; assay type: cell-based; details: Homo sapiens; 22Rv1; 96 h; 96-well format; read-out: IC50 growth inhibition
U2OS = assay: Anti-proliferative ATP assay; assay type: cell-based; details: Homo sapiens, bone, p53 WT/WT
22RV1 = assay: Anti-proliferative ATP assay; assay type: cell-based; details: Homo sapiens, prostate, p53 WT/MUT
HCT-116 (p53 wild-type) = assay: Cell growth assay (WST-8); assay type: cell-based, human; details: Homo sapiens, HCT-116, 96 h, read-out: IC50 HCT-116 (p53 wild-type), Four day treatment
SJSA-1 (p53 wild-type) = assay: Cell growth assay (WST-8); assay type: cell-based; details: Homo sapiens, SJSA-1, 96 h, read-out: IC50 SJSA-1 (p53 wild-type), Four day treatment

For CC(C)(C)C[C@@H]1N[C@@H](C(=O)NC2CCC(O)CC2)[C@H](c2cccc(Cl)c2F)[C@]12C(=O)Nc1cc(Cl)ccc12 (some centres unmarked) [MI-77301 (free amine)], the IC50 (JAR) was 169 nM, the IC50 (LNCAP (p53 wild-type)) was 54 ± 8 nM and the IC50 (Capan2) was over 10000 nM. The IC50 (LY3) was 280 nM, the IC50 (Ku812) was over 10000 nM and the IC50 (SJSA1) was 145 nM. For the same compound, the IC50 (RS4; 11) was 28 nM, the IC50 (MKN45) was over 10000 nM and the IC50 (MCF7) was 201 nM. The IC50 (RKO) was 480 nM, the “antitumor efficacy (tumor volume)” value [1] was “comparable efficacy to a continuous dosing regimen” and the IC50 (EHEB) was 70 nM. For the same compound, the IC50 (PC-3 (deleted p53)) was 8450 ± 350 nM, the IC50 (RS4; 11 (p53 wt)) was 102 nM and 81 nM and the IC50 (LnCap) was 50 nM. For the same compound, the IC50 (H929) was 114 nM, the IC50 (Ly7) was over 10000 nM and the IC50 (MV4; 11) was 45.4 nM. The IC50 (Y79) was 430 nM, the IC50 (Rec1) was 738 nM and the IC50 (Ly10) was 90 nM. For the same compound, the IC50 (Hs746T) was 10000 nM, the IC50 (SNU-1) was 77 nM and the IC50 (MOLM13) was 14.7 nM. For the same compound, the IC50 (H1299) was over 10000 nM, the IC50 (CCF-STTG1) was 162 nM and the IC50 (SNU-5) was over 10000 nM. It also gave an IC50 (HCT116) of 229 nM, an IC50 (DoHH2) of 39.3 nM and an IC50 (SR) of 14.9 nM. For the same compound, the IC50 [2] was 100 to 500 nM, the IC50 (U2OS) was over 10000 nM and the IC50 (22RV1) was 399 nM. It also gave an IC50 (HCT-116 (p53 wild-type)) of 33 ± 10 nM and an IC50 (SJSA-1 (p53 wild-type)) of 58 ± 23 nM.
